Data published in PMC2527810, “[^18F]FDG and [^18F]FLT uptake in human breast cancer cells in relation to the effects of chemotherapy: an in vitro study” (British Journal of Cancer, 2008).
One block for each molecule: values may come before it.

Columns and labels:
purified TK-2 = biological target: T1, purified TK-2 (Homo sapiens, UniProt O00142); assay: FLT phosphorylation by purified TK-2; assay type: biochemical
T1 construct: gift: A. Karlsson, Karolinska Institute, Stockholm, Sweden
T1 sequence (O00142 34-265): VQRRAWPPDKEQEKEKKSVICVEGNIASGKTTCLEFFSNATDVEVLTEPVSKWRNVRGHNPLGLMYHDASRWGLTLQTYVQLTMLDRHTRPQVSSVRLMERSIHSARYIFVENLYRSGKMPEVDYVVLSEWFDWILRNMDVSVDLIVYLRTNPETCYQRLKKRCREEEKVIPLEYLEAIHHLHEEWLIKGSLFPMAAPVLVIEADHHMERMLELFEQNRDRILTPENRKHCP
Protocol: (§1) 3′-deoxy-3′-[^18F]fluorothymidine was diluted with 50 mM Tris/1 mM EDTA (pH 7.4) and 1 : 1 mixed with 20 mM ATP, 10 mM MgCl2, resulting in an FLT concentration of about 60 MBq ml^−1 (6.32–18.89 pmol per sample). […] was inhibited by addition of dCTP or the specific TK-2 inhibitor KIN52 (final concentration 2 μM) ([Balzarini et al, 2003]).
(§2) The assay was optimised for protein concentration and incubation times. Diluted cell lysates or purified TK-2 (kindly provided by A. Karlsson, Karolinska Institute, Stockholm, Sweden) were incubated with the FLT mixture for 15 min at 37°C and the reaction was stopped by heating the samples at 95°C for 5 min. Substrate (FLT) and product (FLT-phosphate) were separated by TLC and radioactivity was measured in a single-well gamma counter (Wallac1480 Wizard, Perkin Elmer Lifescience, MA, USA). Protein concentrations were measured in a Bio-Rad Bradford protein assay (Bio-Rad Laboratories, Hercules, CA, USA). Thymidine kinase activity was calculated as the amount of FLT converted into FLT-phosphate per hour per million cells (nmol h^−1 10^−6 cells).

[1] = biological target: T2, recombinant mitochondrial TK-2 (Homo sapiens, UniProt O00142); assay: Phosphorylation of [CH3-3H]dThd by recombinant TK-2; assay type: biochemical
T2 sequence (O00142 34-265): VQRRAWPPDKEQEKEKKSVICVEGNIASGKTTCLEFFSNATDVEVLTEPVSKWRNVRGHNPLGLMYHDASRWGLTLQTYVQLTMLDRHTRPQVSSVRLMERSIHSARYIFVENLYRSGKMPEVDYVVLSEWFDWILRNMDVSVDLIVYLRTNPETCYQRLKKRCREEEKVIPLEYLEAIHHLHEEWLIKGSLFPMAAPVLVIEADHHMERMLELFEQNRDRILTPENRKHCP
Protocol: (§3) […] A 50 μl reaction mixture, containing 50 mM Tris-HCl, pH 8.0, 2.5 mM MgCl2, 10 mM dithiothreitol, 2.5 mM ATP, 1.0 mg ml^−1 bovine serum albumin, 10 mM NaF, [CH3-^3H]dThd (0.1 μCi in 5 μl; 1 μM final concentration) and 5 μl of recombinant enzyme, was incubated at 37°C for 30 min in the presence or absence of different concentrations of dCTP or KIN52. During this time, the enzyme reaction proceeded linearly. Formation of tritiated dTMP was measured by spotting aliquots of the reaction mixture on Whatman DE-81 filter paper disks, as described earlier ([Balzarini et al, 2003]).

[2] = biological target: T3, recombinant cytosolic TK-1 (Homo sapiens, UniProt P04183); assay: Phosphorylation of [CH3-3H]dThd by recombinant TK-1; assay type: biochemical
T3 sequence (P04183 1-234): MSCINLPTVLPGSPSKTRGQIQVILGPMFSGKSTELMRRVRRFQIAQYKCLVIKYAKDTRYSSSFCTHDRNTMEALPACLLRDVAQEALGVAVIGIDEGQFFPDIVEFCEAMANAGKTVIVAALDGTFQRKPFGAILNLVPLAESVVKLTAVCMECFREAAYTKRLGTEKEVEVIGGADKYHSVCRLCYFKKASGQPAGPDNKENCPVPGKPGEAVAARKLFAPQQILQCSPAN
Protocol: A 50 μl reaction mixture, containing 50 mM Tris-HCl, pH 8.0, 2.5 mM MgCl2, 10 mM dithiothreitol, 2.5 mM ATP, 1.0 mg ml^−1 bovine serum albumin, 10 mM NaF, [CH3-^3H]dThd (0.1 μCi in 5 μl; 1 μM final concentration) and 5 μl of recombinant enzyme, was incubated at 37°C for 30 min in the presence or absence of different concentrations of dCTP or KIN52.

MDA MB231 cells = assay: Separation of cellular FLT and FLT-phosphate by TLC; assay type: cell-based, human; details: one hour after adding FLT
Excerpt: To discriminate between FLT and FLT-phosphate, cells in another identical plate were harvested and after stopping the enzyme reaction, cells were sonificated and spun down. 3′-deoxy-3′-[^18F]fluorothymidine and FLT-phosphate, present in the supernatant were separated as described above (section TK enzyme activity).

[3] = system: cellular TK activities (MDA MB231 cell lysates); assay: Inhibition of cellular TK activity by TK-2 inhibitors added to cell lysates; assay type: biochemical, human; details: dCTP 10 μM added to cell lysates
Protocol: Cell pellets were suspended in 50 mM Tris/1 mM EDTA (pH 7.4) and sonificated on ice. Lysates were spun down and supernatant diluted 1 : 8 in 50 mM Tris/1 mM EDTA (pH 7.4).
as §1, §2

[4] = substrate: Cc1cn([C@H]2C[C@H](O)[C@@H](CO)O2)c(=O)[nH]c1=O; assay: Phosphorylation of [CH3-3H]dThd by recombinant TK-2; assay type: biochemical; details: other: TK-2, Lineweaver–Burk; pH 8.0; 37.0 °C
Protocol: as §3

conversion of FLT into FLT-phosphate (purified TK-2; FLT added to purified TK-2): 8%
Ki/Km ([1]; TK-2): 3.2
Ki ([1]; TK-2, competitive vs dThd, read-out: Ki FLT): 4.2 µM
Ki ([2]; TK-1, competitive vs dThd, read-out: Ki FLT): 1.9 µM
Molecule: Cc1cn([C@H]2C[C@H]([18F])[C@@H](CO)O2)c(=O)[nH]c1=O [FLT, 3′-deoxy-3′-[^18F]fluorothymidine]
cellular radioactivity as unphosphorylated FLT (MDA MB231 cells): less than 20%
cellular radioactivity counts due to FLT phosphate (MDA MB231 cells): more than 80%

inhibition of FLT phosphorylation by TK-2 (purified TK-2; dCTP 10 mM): 97%
IC50 ([1]; TK-2, 1 μM [CH3-3H]dThd as substrate): ~50 µM
IC50 ([2]; TK-1, 1 μM [CH3-3H]dThd as substrate): ~5 µM
Molecule: Nc1ccn([C@H]2C[C@H](O)[C@@H](COP(=O)(O)OP(=O)(O)OP(=O)(O)O)O2)c(=O)n1 [dCTP]
inhibition of cellular TK activities [3]: 55–90%

B1: recombinant mitochondrial TK-2 (Homo sapiens) (protein)
chain: VQRRAWPPDKEQEKEKKSVICVEGNIASGKTTCLEFFSNATDVEVLTEPVSKWRNVRGHNPLGLMYHDASRWGLTLQTYVQLTMLDRHTRPQVSSVRLMERSIHSARYIFVENLYRSGKMPEVDYVVLSEWFDWILRNMDVSVDLIVYLRTNPETCYQRLKKRCREEEKVIPLEYLEAIHHLHEEWLIKGSLFPMAAPVLVIEADHHMERMLELFEQNRDRILTPENRKHCP
Km [4]: 1.3 µM
